Values joined by “and” are separate entries in the source; they are usually repeats but may differ in a detail not shown here. Identical values can stand only once. Like-named read-outs stand apart in the source and are kept apart here.
Legend:
[1] = tested on: HT29; assay: MTT cytotoxicity (IC50), HT29; format: cell-based; conditions: Homo sapiens, HT-29, 72 h, read-out: IN Vitro IC50 (nm) HT29
Protocol: (§1) Compound 17932 was tested in four of these cell lines, while the remaining compounds were tested in all of these cell lines. All cell lines were maintained in RPMI-1640 tissue culture medium (TCM, supplemented with antibiotics and 10% fetal bovine serum) and cultured at 37° C. in humidified air containing 5% CO2. To assess the antiproliferative effects of the test compounds, 172 μL of tumor cell suspension (1.45×10^4 cells/ml) were added to each well of a 96-well plate and incubated for 24 h at 37° C. in 5% CO2 in air to allow cells to adhere. Seven 2-fold drug dilutions in TCM/DMSO were performed in triplicate in separate 96-well plates and 28 μL was transferred to the wells containing tumor cells (200 μL final volume/0.1% DMSO). Plates were incubated for 72 h and cell viability was determined by adding 50 μL of warm TCM containing 5 mg/mL MTT (3-[4,5-dimethylthiazol-2-yl]-2,5-diphenyltetrazolium bromide) to each well and incubating for 1 h at 37° C. Plates were processed and the absorbances of the resulting solutions were measured by a plate reader at 570 nm. […] (GraphPad Prism version 4.00 for Windows). Studies were conducted by Taxolog, Inc., Tallahassee, Fla.

[2] = tested on: MALME-3; assay: MTT cytotoxicity (IC50), MALME-3; format: cell-based; conditions: Homo sapiens, 72 h, read-out: IN Vitro IC50 (nm) Malme3
Protocol: as §1

[3] = tested on: HT29 human tumor xenografts; assay: HT29 xenograft study e139 (Example 23); format: in vivo, nude mice; conditions: for Number of Death NTR / Number of Death TR: N=6
[4] = tested on: HT29 human tumor xenografts; assay: HT29 xenograft study e210, oral and i.v. (Example 25); conditions: for CR (complete regression) / NTR NTRa/u / NTR NTRm / PR (partial regression) / TFS (tumor-free survivor) / TR (treatment-related death): n=6
From the text: (§2) The formulation for oral studies was an ethanol and Cremophor formulation while the formulation for compound 18365 and compound 19244 dosed i.v. was 5% ethanol and 95% Liposyn II 20%.

[5] = tested on: human BxPC-3 human pancreatic xenograft; format: in vivo; conditions: for optimal T/C % value: at D53; for T/C % values: from D33
Protocol: Method: Twenty four (24) hours after a whole body irradiation with a γ-source (7.0 Gy, Co^60, INRA, Dijon, France) 20×10^6 BxPC-3 cells in 200 μl of RPMI 1640 culture medium were subcutaneously injected in the right flank of 8 female Nude rats to generate tumor material. When the tumor size reaches approximately 1,000 mm^3, the tumors were surgically excised for implantation into recipient Nude female rats. Twenty four (24) hours after a whole body irradiation (7.0 Gy, Co^60, INRA, Dijon, France), fresh BxPC-3 tumor fragments were sc implanted in the right flank of 52 Nude female rats (1 fragment/rat) at D0 using surgical pliers and skin was stitched. The antitumor activity study was started at D21 when the mean tumor volume has reached 321.6±131.2 mm^3. Before the start of treatments, 42 tumor bearing rats out of 52 grafted were randomized into 7 groups of 6 animals.
[…]. At 7 mg/kg/inj, only two treatments were performed at D21 and D42 due to severe body weight loss.

[6] = tested on: HT29 human tumor xenografts; assay: HT29 xenograft study e212, oral and i.v. (Example 26); conditions: for CR (complete regression) / NTR NTRa/u / NTR NTRm / PR (partial regression) / TFS (tumor-free survivor) / TR (treatment-related death): n=6
From the text: as §2

[7] = tested on: human MX-1 breast carcinoma; assay: MX1 xenograft study e219R1, i.v. single dose (Example 17); conditions: for CR (complete regression) / NTR (non-treatment-related death) / PR (partial regression) / TFS (tumor-free survivor) / TR (treatment-related death): n=5; for minimal effective dose: iv qd × 1, lowest dose with statistically significant results and at least one D61 survivor or regression
[8] = tested on: OVCAR4; assay: MTT cytotoxicity (IC50), OVCAR4; format: cell-based; conditions: Homo sapiens, OVCAR-4, 72 h, read-out: IN Vitro IC50 (nm) OVCAR4
Protocol: as §1

[9] = tested on: 786-0; assay: MTT cytotoxicity (IC50), 786-0; format: cell-based; conditions: Homo sapiens
Protocol: as §1

[10] = every four day schedule for four doses
[11] = MTT, 72 h, read-out: IN Vitro IC50 (nm) 786-0
[12] = Resistance MDR1+, read-out: 786-0 Renal (Table 4, quantity not named; IC50 values as Table 2)
[13] = 25 mg/kg iv q4d × 4, vehicle EL
[14] = 50 mg/kg po q4d × 4, vehicle EC

## CC(=O)O[C@@]12CO[C@@H]1C[C@H](O)[C@@]1(C)C(=O)[C@H](OC(=O)C3CC3)C3=C(C)[C@@H](OC(=O)[C@H](O)[C@@H](NC(=O)OC4CCC4)c4cccs4)C[C@@](O)([C@@H](OC(=O)c4ccccc4)C12)C3(C)C (stereo partly shown) [Compound 18365]
[1]
  IC50: 0.5 nM
[2]
  IC50: 4.1 nM
[3]; 25 mg/kg i.v. q4d×4, six mice
  61-day survivors: five
  CR responses: 2
  PR responses: 4
[3]; 25 mg/kg iv q4d × 4
  Day 51 mm^3 (tumor size): 112.8 mm^3
  Day 54 mm^3 (tumor size): 124.7 mm^3
  Max. BW Loss %; Day: −17.1%; Day 16
  Number of Death NTR: 0
  Number of Death TR: 1
[4]; 25 mg/kg iv q4d × 4
  % TGD: 214.3%
  BW Nadir: −7.6% (16)
  MTV (n), Day 60: 5.00 (6) mm^3
  Median TTE: 60 days
  T-C: 40.91 days
  CR (complete regression): 4
  NTR NTRa/u: 0
  NTR NTRm: 0
  PR (partial regression): 2
  TFS (tumor-free survivor): 4
  TR (treatment-related death): 0
[4]; 50 mg/kg po q4d × 4
  % TGD: 214.3%
  BW Nadir: −7.6% (16)
  MTV (n), Day 60: 8.75 (6) mm^3
  Median TTE: 60 days
  T-C: 40.91 days
  CR (complete regression): 4
  NTR NTRa/u: 0
  NTR NTRm: 0
  PR (partial regression): 2
  TFS (tumor-free survivor): 3
  TR (treatment-related death): 0
[4]; [10]
  activity in the HT29 xenograft tumor model: oral and IV activity
[5]; 5 mg/kg
  wt loss: 16.9%
[5]; 5 mg/kg/inj
  tolerability of repeated IV treatments: not well tolerated
[5]; 5 mg/kg/inj IV, repeated
  mean doubling time (DT) of tumors: 24.7 ± 10.4 days
  time to reach volume (T to V) of 1,000 mm^3: 64.3 ± 16.3 days
[5]; 5 mg/kg/inj IV, at D33
  body weight loss: −16.9±6.1%
[5]; 5 mg/kg/inj IV
  optimal T/C % value: 11.0%
  T/C % values: lower than 42%
[5]; 5 mg/kg/inj IV, at D81 (final sacrifice), 6 rats per group
  animals with complete tumor regression: two
[5]; 7 mg/kg/inj
  tolerability of repeated IV treatments: not tolerated
[5]; 7 mg/kg/inj IV
  rats out of six alive at the end of the study: one
  optimal T/C % value: 13.2% and 8.9%
  T/C % values: lower than 42%
[5]; 7 mg/kg/inj IV, after the first treatment
  MBWC D21-D26: −16.5±7.2%
[5]; repeated IV injections at 5 and 7 mg/kg/inj
  antitumor activity: marked antitumor activity
[6]; [10]
  activity in the HT29 xenograft tumor model: oral and IV activity
[7]; 7.5 mg/kg iv qd × 1
  % TGD: 12.92%
  BW Nadir: −3.8% (4)
  Median TTE: 36.29 days
  T-C: 4.15 days
  activity (statistical significance): non-significant activity
  CR (complete regression): 0
  NTR (non-treatment-related death): 0
  PR (partial regression): 0
  TFS (tumor-free survivor): 0
  TR (treatment-related death): 0
[7]; 15 mg/kg iv qd × 1
  % TGD: 76.26%
  BW Nadir: −6.8% (5)
  MTV (n), Day 60: 1098.50 (1) mm^3
  Median TTE: 56.65 days
  T-C: 24.51 days
  maximum group mean BW loss: 6.8%
  CR (complete regression): 2
  NTR (non-treatment-related death): 0
  PR (partial regression): 1
  TR (treatment-related death): 0
[7]; 30 mg/kg iv qd × 1
  % TGD: 89.79%
  BW Nadir: −16.0% (5)
  MTV (n), Day 60: 0.00 (5) mm^3
  Median TTE: 61 days
  T-C: 28.86 days
  maximum group mean BW loss: 16%
  CR (complete regression): 5
  NTR (non-treatment-related death): 0
  PR (partial regression): 0
  TFS (tumor-free survivor): 5
  TR (treatment-related death): 0
[7]
  minimal effective dose: 15 mg/kg
[8]
  IC50: 1.1 nM
[9]; [11]
  IC50: 1.1 nM
[9]; [12]
  IC50: 1.1 nM

## CCC(=O)O[C@H]1C(=O)[C@@]2(C)C([C@H](OC(=O)c3ccccc3)[C@]3(O)C[C@H](OC(=O)[C@H](O)[C@@H](NC(=O)OC4CCCC4)c4cccs4)C(C)=C1C3(C)C)[C@]1(OC(C)=O)CO[C@@H]1C[C@@H]2O (stereo partly shown) [Compound 18926]
[1]
  IC50: 0.4 nM
[2]
  IC50: 1.8 nM
[3]; 20 mg/kg i.v. q4d×4
  MTV (Day 61): 83 mm^3
[3]; 20 mg/kg i.v. q4d×4, six mice
  PR responses: 5
[3]; 20 mg/kg iv q4d × 4
  Day 51 mm^3 (tumor size): 142.3 mm^3
  Day 54 mm^3 (tumor size): 147 mm^3
  Max. BW Loss %; Day: −20.7%; Day 16
  Number of Death NTR: 0
  Number of Death TR: 0
[6]; 25 mg/kg iv q4d × 4
  CR (complete regression): 5
  NTR NTRa/u: 0
  NTR NTRm: 0
  PR (partial regression): 0
  TFS (tumor-free survivor): 5
  TR (treatment-related death): 1
[6]; [13]
  % TGD: 237.14%
  BW Nadir: 13.5% (17)
  MTV (n), Day 59: 0.00 (5) mm^3
  Median TTE: 59 days
  T-C: 41.5 days
[6]; 50 mg/kg po q4d × 4
  CR (complete regression): 1
  NTR NTRa/u: 0
  NTR NTRm: 0
  PR (partial regression): 5
  TFS (tumor-free survivor): 1
  TR (treatment-related death): 0
[6]; [14]
  % TGD: 237.14%
  BW Nadir: 10.4% (17)
  MTV (n), Day 59: 20.25 (6) mm^3
  Median TTE: 59 days
  T-C: 41.5 days
[7]; 7.5 mg/kg iv qd × 1
  % TGD: 16.46%
  BW Nadir: −7.6% (3)
  Median TTE: 37.43 days
  T-C: 5.29 days
  activity (statistical significance): non-significant activity
  maximum group mean BW loss: 7.6%
  CR (complete regression): 0
  NTR (non-treatment-related death): 0
  PR (partial regression): 0
  TFS (tumor-free survivor): 0
  TR (treatment-related death): 0
[7]; 15 mg/kg iv qd × 1
  % TGD: 89.79%
  BW Nadir: −6.6% (4)
  MTV (n), Day 60: 0.00 (4) mm^3
  Median TTE: 61 days
  T-C: 28.86 days
  maximum group mean BW loss: 6.6%
  CR (complete regression): 4
  NTR (non-treatment-related death): 0
  PR (partial regression): 0
  TFS (tumor-free survivor): 4
  TR (treatment-related death): 0
[7]; 30 mg/kg iv qd × 1
  % TGD: 89.79%
  BW Nadir: −15.5% (5)
  MTV (n), Day 60: 0.00 (5) mm^3
  Median TTE: 61 days
  T-C: 28.86 days
  maximum group mean BW loss: 15.5%
  CR (complete regression): 5
  NTR (non-treatment-related death): 0
  PR (partial regression): 0
  TFS (tumor-free survivor): 5
  TR (treatment-related death): 0
[7]
  minimal effective dose: 15 mg/kg
[8]
  IC50: 1 nM
[9]; [11]
  IC50: 0.7 nM
[9]; [12]
  IC50: 0.7 nM

— patent US8242166B2, “C(10) ethyl ester and C(10) cyclopropyl ester substituted taxanes” (Florida State University Research Foundation, Inc., priority 2008, dated 2012)
